{"source": "patent US20160317430A1", "about": "“COSMETIC USE OF AN EXTRACT OF GYMNEMA SYLVESTRE” (LABORATOIRES CLARINS, priority 2013, published 2016)", "system": "cytochrome C oxidase, complex IV of the respiratory chain", "test": "Cytochrome C oxidase activity in human keratinocytes in culture, with or without H2O2 oxidative stress", "assay_type": "cell-based", "conditions": "H2O2 alone (positive control), 24 h", "experimental": "The keratinocyte cultures were established using skin from human foreskins collected at circumcisions and were amplified in KGM2 medium (Keratinocyte Growth Medium, KGN2, clonetics) supplemented with insulin, EGF and pituitary extract. The tests were conducted on keratinocytes at the 3rd passage. The cells were inoculated in multi-well dishes at a rate of 1×10^6 cells. After 24 hours of incubation at 37° C. (5% CO2), the cells in the exponential growth phase were treated with Gymnema sylvestre extract at the concentrations of 0.125% and 0.25% alone or in the presence of H2O2.\nAfter 24 hours of treatment, the cells were sampled and then washed and resuspended in cold PBS. The evaluation of the cytochrome C oxidase activity was then carried out using the analysis kit (Cytochrome C Oxidase Assay Kit—Sigma) according to the protocol specified.", "data": [{"smiles": "OO", "note": "[H2O2, hydrogen peroxide]", "values": [{"measurement": "% (cytochrome C oxidase activity vs negative control)", "value": "−34", "unit": "%"}, {"measurement": "ATP mean (Table II, cytochrome C oxidase activity test)", "value": 0.87, "unit": "nmol/10^7 cells"}]}]}
